Measurements taken from ChEMBL document CHEMBL4385611, “Difluoromethylene at the γ-Lactam α-Position Improves 11-Deoxy-8-aza-PGE1 Series EP4 Receptor Binding and Activity: 11-Deoxy-10,10-difluoro-8-aza-PGE1 Analog (KMN-159) as a Potent EP4 Agonist” (J Med Chem, 2019).
Values after ≈ are worked out from the molar mass of the structure shown.

Columns and labels:
[1] = target: Voltage-gated inwardly rectifying potassium channel KCNH2 (Homo sapiens, UniProt Q12809); assay: Inhibition of human ERG expressed in CHOK1 cells assessed as reduction in tail current amplitude by automated patch-clamp method; type: cell-based
Voltage-gated inwardly rectifying potassium channel KCNH2, sequence (Q12809 whole entry): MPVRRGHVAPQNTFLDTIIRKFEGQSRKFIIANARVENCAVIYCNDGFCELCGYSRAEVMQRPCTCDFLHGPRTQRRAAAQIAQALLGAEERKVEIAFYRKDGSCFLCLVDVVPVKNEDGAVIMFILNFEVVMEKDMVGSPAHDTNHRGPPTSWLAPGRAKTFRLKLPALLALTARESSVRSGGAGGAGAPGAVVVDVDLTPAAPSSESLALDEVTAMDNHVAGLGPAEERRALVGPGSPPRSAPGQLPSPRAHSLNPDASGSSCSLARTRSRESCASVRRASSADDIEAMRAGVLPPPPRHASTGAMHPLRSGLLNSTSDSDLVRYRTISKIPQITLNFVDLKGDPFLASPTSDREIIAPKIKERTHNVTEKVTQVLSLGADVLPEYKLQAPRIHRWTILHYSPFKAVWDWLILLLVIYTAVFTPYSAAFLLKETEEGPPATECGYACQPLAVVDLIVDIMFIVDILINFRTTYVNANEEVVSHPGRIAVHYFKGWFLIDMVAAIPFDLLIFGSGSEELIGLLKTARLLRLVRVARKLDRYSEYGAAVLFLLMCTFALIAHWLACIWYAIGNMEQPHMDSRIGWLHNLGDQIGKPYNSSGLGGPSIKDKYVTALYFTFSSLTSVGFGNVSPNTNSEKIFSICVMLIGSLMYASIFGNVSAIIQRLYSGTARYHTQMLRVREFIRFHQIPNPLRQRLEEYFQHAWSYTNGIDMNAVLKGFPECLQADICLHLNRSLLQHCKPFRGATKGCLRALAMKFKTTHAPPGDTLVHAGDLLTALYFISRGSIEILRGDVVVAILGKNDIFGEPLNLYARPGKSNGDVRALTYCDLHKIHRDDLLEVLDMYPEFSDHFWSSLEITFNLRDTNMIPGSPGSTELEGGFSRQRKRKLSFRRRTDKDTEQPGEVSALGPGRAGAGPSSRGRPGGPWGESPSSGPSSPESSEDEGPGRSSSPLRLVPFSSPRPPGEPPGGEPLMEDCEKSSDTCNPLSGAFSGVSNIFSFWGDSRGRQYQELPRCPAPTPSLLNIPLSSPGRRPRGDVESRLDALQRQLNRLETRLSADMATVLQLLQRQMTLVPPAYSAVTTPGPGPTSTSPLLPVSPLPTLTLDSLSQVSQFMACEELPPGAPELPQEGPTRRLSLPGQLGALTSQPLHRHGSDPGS

[2] = organism: Homo sapiens; assay: Selectivity ratio of Ki for displacement of [3H]PGE2 from human recombinant EP2 receptor expressed in HEK293 cell membranes to Ki for displacement of [3H]PGE2 from human recombinant EP4 receptor expressed in HEK293 cell membranes
[3] = Mutagenicity in Salmonella typhimurium TA1535 after 96 hrs in absence of rat liver S9 fraction by Ames test; type: toxicity; details: salmonella enterica subsp. enterica serovar typhimurium, s9, 96 h
[4] = n-Octanol-PBS buffer partition coefficient, log D of the compound at 100 uM at pH 7.4 after 1 hr by LC-MS/MS analysis; type: physicochemical
[5] = Genotoxicity in Salmonella typhimurium TA100 at 0.6 to 100 uM after 96 hrs by photometry analysis; type: toxicity; details: salmonella enterica subsp. enterica serovar typhimurium
[6] = Protein binding in human plasma at 10 uM after 4 hrs by HPLC-MS/MS-based equilibrium dialysis method; type: ADME, cell-free; details: read-out: PPB (converted)
[7] = tested on: CHO-K1; assay: Clastogenic activity in CHOK1 cells after 4 hrs in presence of S9 fraction by micronucleus assay; type: toxicity, cell-based, Cricetulus griseus; details: chinese hamster, s9, 4 h
[8] = Half-life in human blood at 1 uM by HPLC-MS/MS analysis; type: ADME, tissue-based
[9] = target: T1, Cytochrome P450 1A (Homo sapiens, UniProt P04798+P05177); assay: Inhibition of CYP1A in human liver microsomes using phenacetin as substrate at 10 uM after 10 mins by HPLC-MS/MS analysis; type: ADME
T1 sequence (P04798 whole entry): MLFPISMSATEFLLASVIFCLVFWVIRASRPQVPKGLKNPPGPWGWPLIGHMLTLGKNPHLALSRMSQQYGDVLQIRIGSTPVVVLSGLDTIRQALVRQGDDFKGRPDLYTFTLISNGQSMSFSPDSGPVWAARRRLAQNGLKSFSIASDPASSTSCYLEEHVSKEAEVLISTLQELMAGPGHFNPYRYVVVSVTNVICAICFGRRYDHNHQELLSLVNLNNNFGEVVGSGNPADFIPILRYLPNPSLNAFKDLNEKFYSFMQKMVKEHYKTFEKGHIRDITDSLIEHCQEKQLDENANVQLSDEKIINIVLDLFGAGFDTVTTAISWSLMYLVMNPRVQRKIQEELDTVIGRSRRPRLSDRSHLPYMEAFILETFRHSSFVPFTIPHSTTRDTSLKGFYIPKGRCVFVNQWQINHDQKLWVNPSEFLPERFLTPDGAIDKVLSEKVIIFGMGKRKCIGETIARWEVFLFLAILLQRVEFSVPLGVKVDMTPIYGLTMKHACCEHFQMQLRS
T1 sequence (P05177 whole entry): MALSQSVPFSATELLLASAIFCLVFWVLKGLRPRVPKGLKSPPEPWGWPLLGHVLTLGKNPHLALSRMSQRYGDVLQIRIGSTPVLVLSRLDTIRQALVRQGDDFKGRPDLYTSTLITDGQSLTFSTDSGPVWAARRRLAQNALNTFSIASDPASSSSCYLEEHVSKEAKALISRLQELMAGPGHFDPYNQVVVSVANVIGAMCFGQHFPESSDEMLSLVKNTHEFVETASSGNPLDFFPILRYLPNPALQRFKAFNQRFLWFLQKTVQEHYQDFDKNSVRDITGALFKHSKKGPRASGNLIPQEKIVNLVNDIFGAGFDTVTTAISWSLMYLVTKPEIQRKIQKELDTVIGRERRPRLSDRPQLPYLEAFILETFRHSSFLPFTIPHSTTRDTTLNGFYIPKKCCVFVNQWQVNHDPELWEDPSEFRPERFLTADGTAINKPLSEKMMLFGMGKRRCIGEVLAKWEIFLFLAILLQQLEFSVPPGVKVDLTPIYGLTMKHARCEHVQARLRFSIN

[10] = Efflux ratio of apparent permeability from basolateral to apical side over apical to basolateral side in human Caco2 cells at 5 uM after 120 mins by LC-MS/MS analysis; type: ADME, cell-based; details: Caco-2
[11] = target: Cytochrome P450 2D6 (Homo sapiens, UniProt P10635); assay: Inhibition of CYP2D6 in human liver microsomes using dextromethorphan as substrate at 10 uM after 10 mins by HPLC-MS/MS analysis; type: ADME
Cytochrome P450 2D6, sequence (P10635 whole entry): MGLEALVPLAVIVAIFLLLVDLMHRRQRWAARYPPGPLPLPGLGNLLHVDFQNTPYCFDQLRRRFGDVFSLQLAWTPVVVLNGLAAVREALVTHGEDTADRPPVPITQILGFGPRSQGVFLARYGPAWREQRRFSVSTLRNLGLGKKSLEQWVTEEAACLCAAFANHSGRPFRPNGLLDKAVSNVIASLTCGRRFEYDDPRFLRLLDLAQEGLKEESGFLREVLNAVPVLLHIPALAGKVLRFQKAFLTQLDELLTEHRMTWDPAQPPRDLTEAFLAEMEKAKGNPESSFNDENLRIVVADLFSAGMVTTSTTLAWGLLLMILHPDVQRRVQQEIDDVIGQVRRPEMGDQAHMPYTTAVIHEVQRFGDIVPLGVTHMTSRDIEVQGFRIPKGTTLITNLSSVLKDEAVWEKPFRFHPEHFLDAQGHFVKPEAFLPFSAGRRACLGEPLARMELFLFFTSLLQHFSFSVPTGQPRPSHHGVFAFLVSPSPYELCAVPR

[12] = target: T2, Prostaglandin E2 receptor EP2 subtype (Homo sapiens, UniProt P43116); assay: Displacement of [3H]PGE2 from human recombinant EP2 receptor expressed in HEK293 cell membranes after 120 mins by liquid scintillation counting method
T2 sequence (P43116 whole entry): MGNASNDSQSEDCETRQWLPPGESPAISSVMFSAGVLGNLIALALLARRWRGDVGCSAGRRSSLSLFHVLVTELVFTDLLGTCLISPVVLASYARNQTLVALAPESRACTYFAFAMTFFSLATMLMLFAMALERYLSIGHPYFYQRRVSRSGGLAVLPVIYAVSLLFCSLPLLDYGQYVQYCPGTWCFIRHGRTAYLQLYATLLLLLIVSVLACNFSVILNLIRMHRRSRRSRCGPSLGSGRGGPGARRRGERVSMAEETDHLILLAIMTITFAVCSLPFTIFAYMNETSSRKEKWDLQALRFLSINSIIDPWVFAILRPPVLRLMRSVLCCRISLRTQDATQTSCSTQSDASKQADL

[13] = Aqueous solubility of the compound in pH 7.4 phosphate-buffered saline at 200 uM after 24 hrs by shake-flask method; type: physicochemical
[14] = Intrinsic clearance in human liver microsomes at 0.1 uM by HPLC-MS/MS analysis; type: ADME, Microsome; details: read-out: CLH
[15] = target: T2, Prostaglandin E2 receptor EP2 subtype; assay: Agonist activity at human EP2 receptor expressed in HEK293T/17 cells assessed as increase in GalphaS-mediated CREB activation measured after 6 to 24 hrs by SEAP reporter gene-based chemiluminescence assay; type: functional, cell-based
[16] = target: T3, Cytochrome P450 2B6 (Homo sapiens, UniProt P20813); assay: Inhibition of CYP2B6 in human liver microsomes using bupropion as substrate at 10 uM after 10 mins by HPLC-MS/MS analysis; type: ADME
T3 sequence (P20813 whole entry): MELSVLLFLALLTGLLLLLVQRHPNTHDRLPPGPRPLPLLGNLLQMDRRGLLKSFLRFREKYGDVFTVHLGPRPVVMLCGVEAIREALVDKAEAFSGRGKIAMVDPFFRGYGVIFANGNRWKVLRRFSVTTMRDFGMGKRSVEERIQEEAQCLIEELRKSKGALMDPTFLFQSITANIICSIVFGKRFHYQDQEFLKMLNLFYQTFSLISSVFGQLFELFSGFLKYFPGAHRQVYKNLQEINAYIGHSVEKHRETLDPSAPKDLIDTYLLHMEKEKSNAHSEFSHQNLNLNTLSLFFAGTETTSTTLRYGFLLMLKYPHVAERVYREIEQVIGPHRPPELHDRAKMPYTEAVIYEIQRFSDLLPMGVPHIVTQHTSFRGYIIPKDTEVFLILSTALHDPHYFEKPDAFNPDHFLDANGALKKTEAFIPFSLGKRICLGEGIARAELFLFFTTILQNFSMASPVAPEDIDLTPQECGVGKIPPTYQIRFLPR

[17] = Mutagenicity in Salmonella typhimurium TA98 after 96 hrs in presence of rat liver S9 fraction by Ames test; type: toxicity, subcellular; details: salmonella enterica subsp. enterica serovar typhimurium, s9, 96 h
[18] = Apparent permeability across apical to basolateral side in human Caco2 cells assessed as drug recovery at 5 uM after 120 mins by LC-MS/MS analysis; type: ADME, cell-based; details: Caco-2, read-out: Drug recovery
[19] = target: Prostaglandin E2 receptor EP4 subtype (Homo sapiens, UniProt P35408); assay: Displacement of [3H]PGE2 from human recombinant EP4 receptor expressed in HEK293 cell membranes after 120 mins by liquid scintillation counting method
Prostaglandin E2 receptor EP4 subtype, sequence (P35408 whole entry): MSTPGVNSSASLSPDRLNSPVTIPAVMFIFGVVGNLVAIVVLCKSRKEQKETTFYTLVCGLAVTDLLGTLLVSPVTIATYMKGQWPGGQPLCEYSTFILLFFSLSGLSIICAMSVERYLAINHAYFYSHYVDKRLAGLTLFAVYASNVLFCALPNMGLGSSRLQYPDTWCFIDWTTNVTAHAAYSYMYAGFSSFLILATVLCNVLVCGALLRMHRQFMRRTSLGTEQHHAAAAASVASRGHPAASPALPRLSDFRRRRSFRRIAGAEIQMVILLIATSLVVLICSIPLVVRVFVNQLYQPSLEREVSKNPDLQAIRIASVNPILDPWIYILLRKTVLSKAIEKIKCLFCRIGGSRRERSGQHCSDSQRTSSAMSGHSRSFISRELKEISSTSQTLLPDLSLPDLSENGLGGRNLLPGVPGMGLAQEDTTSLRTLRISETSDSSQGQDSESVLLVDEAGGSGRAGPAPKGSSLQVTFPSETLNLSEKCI

[20] = target: T2, Prostaglandin E2 receptor EP2 subtype; assay: Agonist activity at human EP2 receptor expressed in HEK293T/17 cells assessed as increase in intracellular cAMP level incubated for 30 mins by ELISA; type: functional, cell-based

Row | logD at 1 h, 100 µM [4] | fraction unbound at 4 h, 10 µM [6] | half-life at 1 µM [8] | inhibition (INH) [9] | efflux ratio at 2 h, 5 µM [10] | inhibition (INH) [11] | Ki [12] | solubility thermodynamic at 24 h, 200 µM [13] | microsomal CLint at 0.1 µM [14] | EC50 [15] | inhibition (INH) [16] | recovery at 2 h, 5 µM [18] | Ki [19] | EC50 [20] | Compound | IC50 [1] | Ratio Ki [2] | Activity [3] | Activity [5] | Activity [7] | Activity [17]
1 | 0.11 | 0.416 | > 120 min | Not Active | 1.5 | Not Active | 4.97 µM | 197 µM (≈ 78.7 µg/mL) | < 116 µL/min/mg | 7.36 µM | Not Active | 94% | 0.378 nM | > 10 µM | CCC#CC[C@H](C)[C@H](O)/C=C/[C@H]1CC(F)(F)C(=O)N1CCCCCCC(=O)O | 25.9 µM | > 5000 | Non-Toxic | Non-Toxic | Non-Toxic | Non-Toxic
2 | -0.07 | 0.558 | > 120 min | Not Active | 1.6 | Not Active | 12.2 µM | 192 µM (≈ 69.9 µg/mL) | < 116 µL/min/mg | > 10 µM | Not Active | 103% | 2.35 nM | > 10 µM | CCC#CC[C@H](C)[C@H](O)/C=C/[C@H]1CCC(=O)N1CCCCCCC(=O)O | 29 µM | > 5000 | Non-Toxic | Non-Toxic | Non-Toxic | Non-Toxic
